Test results as given in publication PMC11272978, “Exploring the central region of amylin and its analogs aggregation: the influence of metal ions and residue substitutions” (Frontiers in Chemistry, 2024).
“Also recorded” adds a separate entry of the source. No end group written: not given here.

Tests used:
[1] = Thioflavin-T (ThT) aggregation assay; format: physicochemical; details: 40 μM peptide, 20 μM ThT, 50 mM phosphate buffer pH 7.4, 25°C; for ThT fluorescence intensity (aggregation), peptide alone: ex 485/20, em 528/20 nm, read each 5 min; for ThT fluorescence intensity (aggregation) with Cu(II): Cu(II) (Cu(NO3)2) 1:1; for ThT fluorescence intensity (aggregation) with Zn(II): Zn(II) (ZnCl2) 1:1
Description: (§1) Preparation of IAPP fragments solutions and thioflavin-T aggregation assays were performed as described earlier ([Alghrably et al., 2020]). In brief, IAPP fragments were dissolved in 50 mM phosphate buffer to concentrations of 1 mM. Stock solutions were diluted to the desired concentrations, and samples were used fresh each time. It is important to mention that due to the observation of turbidity after dissolving hIAPP-F and Pramlintide-M, both peptides were sonicated for 25 min. All of the aggregation reactions were conducted at 25°C with 40 μM IAPP fragments/mutants (final concentration) in 50 mM phosphate buffer (pH 7.4), and 20 μM thioflavin T in a final volume of 200 μL in each of the 96-well flat-bottom black plate (Corning 3915). We tested the aggregation of each IAPP fragment/mutants alone and with the addition of two metal ions Cu(II) and Zn(II). The metal ions were added to the IAPP fragments in 1:1 ratio. The plate was sealed with transparent film (Duck Brand Crystal Clear Tape, Avon, OH). Thioflavin T fluorescence emission at 528/20 nm (excitation at 485/20) was monitored on a Cytation 5 Multi-Mode Microplate. The measurements were collected by top reading each 5 min after a 3 s shake with an extended gain.

[2] = 1D 1H NMR signal intensity over time (aggregation); format: physicochemical; details: 310 K, over 44 hours; for NMR signal intensity over time (signal loss = aggregation), peptide alone: D2O with 20 mM phosphate buffer pH 7.4, 1.5 mM peptide (100 μM for hIAPP-F and Pramlintide-M)
Description: All peptides (except hIAPP-F and Pramlintide-M) were dissolved in 99.8% deuterium oxide containing 20 mM of phosphate buffer (pH 7.4). All samples contained 1.5 mM peptide concentration in 600 μL of sample volume except for hIAPP-F and Pramlintide-M, for which the final concentration was 100 μM (both peptides have a high tendency to aggregate at room temperature). The samples’ pH was manually adjusted to 7.4 with 0.1 M NaOD stock solution in 100% D2O. These samples were used for the ^1H and ^13C resonances assignment based on 2D spectra: ^1H-^13C HSQC ([Bodenhausen and Ruben, 1980]) tuned for the aliphatic region, HSQC-TOCSY ([Koz´min´ski and Koz´min´ski, 1999]), ^1H-^1H TOCSY ([Braunschweiler and Ernst, 1983]) mixing time 20 ms and 80 ms, ^1H-^1H ROESY ([Davis, 1985]) mixing time 300 ms and 500 ms. During the hIAPP-F and Pramlintide-M sample preparation, a temperature of 90°C was used to dissolve the peptides. After that, both samples were sonicated during the cooling down process to obtain a homogeneous solution. Spectra were measured immediately after sample preparation. The samples with the addition of metal ions were prepared with the same method as the samples of high tendency aggregation peptides hIAPP-F and Pramlintide-M.
All experiments were performed at a temperature of 310 K. The NMR spectra were acquired on spectrometers of 950, 800, and 700 MHz Bruker Avance NEO equipped with cryogenic TCI probes: • rIAPP-F, hIAPP-F, Pramlintide-M: 700 MHz, ^1H frequency = 700.21 MHz, ^13C frequency = 176.07 MHz • rIAPP-M: 800 MHz, ^1H frequency = 800.18 MHz, ^13C frequency = 201.21 MHz • Pramlintide-F, hIAPP-M: 950 MHz, ^1H frequency = 950.30 MHz, ^13C frequency = 238.96 MHz

[3] = tested on: HeLa cells; assay: CCK-8 cytotoxicity assay; format: cell-based, human
Description: The cytotoxicity of the different peptides (rIAPP-F, hIAPP-F, Pramlintide-F, hIAPP-M, rIAPP-M, Pramlintide-M, and hIAPP) was tested using CCK-8 assay according to the manufacturer’s protocol. Briefly, cervical carcinoma cells (HeLa) were seeded into 96 well plates 8 × 10^3 cells/well in 100 µL DMEM culture medium with 10% FBS and 1% Penicillin-Streptomycin and incubated in a 5% CO2 incubator at 37°C overnight. After that, the cells were incubated with the different peptides prepared in deionized water at concentrations (200, 400, 600, and 800 μg/mL) for 24 h. In addition, the cytotoxicity of hIAPP-F and Pramlintide-M prepared in 0.5 mg/mL Cu(NO3)2 and ZnCl2 solutions at the same concentrations (200, 400, 600, and 800 μg/mL) was also tested. Cells without any treatment were used as a control, and all the conditions were done in triplicates. After 24 h, the media was discarded from the plate, and cells were washed with PBS. Then, 10 µL of CCK-8 and 90 µL of fresh DMEM media were added to each well and incubated for 4 h. The absorbance was measured at OD = […] using a microplate spectrophotometer (BioRad-xMark Microplate Absorbance Spectrophotometer). The ratio of the absorbance at 570/605 was calculated, and the average absorbance value of wells without cells was considered as blank and subtracted from all wells to cancel the background noise. The cells without any treatment were used as a control, and their mean value was considered 100% viable. The other treated cells’ viability was calculated using the formula: Cells viability % = (Corrected Mean Absorbance of treated cells)/(Corrected Mean Absorbance of control) ×100.

[4] = Turbidity on dissolving the peptide; format: physicochemical; details: dissolved in 50 mM phosphate buffer to 1 mM; observation; peptides then sonicated for 25 min
Description: as §1

[5] = Atomic force microscopy (AFM) of fibrils; format: physicochemical
Description: AFM imaging was conducted in a 256-scanning line at a 1 Hz scanning rate by using Bruker’s Nano Dimension Icon (Bruker Nano Inc., Germany). In this procedure, 200–300 μM hIAPP-F and Pramlintide-M were incubated with and without selected metal ions at 25°C for 24 h. All the samples were dissolved in 50 mM phosphate buffer (pH 7.4). The height of peptide aggregates was obtained from its section tool through Nano Scope Analysis 1.5, and the line position with average effects in the images was selected, except peptides alone in fibril form.

[6] = 200 µM peptide, phosphate buffer pH 7.4, 25°C, 24 h
[7] = 200 µM peptide alone, phosphate buffer pH 7.4, 25°C, 24 h, cross-section profile
[8] = peptide:Cu(II) 1:1, 200 µM, phosphate buffer pH 7.4, 24 h

Row | Molecule | NMR signal intensity over time (signal loss = aggregation), peptide alone [2] | ThT fluorescence intensity (aggregation), peptide alone [1] | ThT fluorescence intensity (aggregation) with Cu(II) [1] | ThT fluorescence intensity (aggregation) with Zn(II) [1] | fibril morphology (AFM), peptide alone [5, 6] | also measured
1 | SNNFGAILPP [hIAPP-M, custom-designed mutated fragment of human amylin, last two serins mutated with prolines] | no signal loss was observed over time | no increase in fluorescence intensity; also recorded: did not show any increase in the fluorescence intensity | neither metal ions Cu(II) nor Zn(II) have any influence on the aggregation rate | neither metal ions Cu(II) nor Zn(II) have any influence on the aggregation rate |  | 
2 | SNNFGAILSS [hIAPP-F] | decreased over time |  | completely inhibited the aggregation | increased the fluorescence intensity | twisted fibril | cell viability at 800 μg/mL ([3]; HeLa cells, 24 h, CCK-8, peptide in deionized water, highest concentration tested, triplicates): 60%; cell viability, peptide-Cu(II) complex ([3]; HeLa cells, peptide 200-800 μg/mL prepared in 0.5 mg/mL Cu(NO3)2, 24 h, CCK-8, n = 3): high cell viability; cell viability / proliferation, peptide with Zn(II) ([3]; HeLa cells, peptide 200-800 μg/mL prepared in 0.5 mg/mL ZnCl2, 24 h, CCK-8, n = 3): high cell proliferation rate; time to reach saturation phase (ThT), peptide alone [1]: ~2.5 h; time to reach saturation phase (ThT) with Zn(II) ([1]; Zn(II) 1:1): ~2.5 h; turbidity after dissolving [4]: turbidity; fibril diameter (AFM), peptide alone ([5]; 200 µM peptide, phosphate buffer pH 7.4, 25°C, 24 h, profile analysis): approximately 6 nm; fibril diameter (AFM) with Zn(II) ([5]; peptide:Zn 1:1, 200 µM, phosphate buffer pH 7.4, 24 h): same diameter as the matured helical-structured fibrils; NMR signal intensity deterioration with Zn(II) ([2]; 100 μM peptide, pH 7.4, with Zn(II)): occurred faster in the presence of Zn(II)
3 | CC[C@H](C)[C@H](NC(=O)[C@H](C)NC(=O)CNC(=O)[C@H](Cc1ccccc1)NC(=O)[C@H](CC(N)=O)NC(=O)[C@H](CC(N)=O)NC(=O)[C@H](CO)NC(=O)[C@H](CO)NC(=O)[C@H](Cc1c[nH]cn1)NC(=O)[C@@H](NC(=O)[C@H](CC(C)C)NC(=O)[C@H](Cc1ccccc1)NC(=O)[C@H](CC(N)=O)NC(=O)[C@H](C)NC(=O)[C@H](CC(C)C)NC(=O)[C@H](CCCNC(=N)N)NC(=O)[C@H](CCC(N)=O)NC(=O)[C@@H](NC(=O)[C@H](C)NC(=O)[C@@H]1CSSC[C@H](NC(=O)[C@@H](N)CCCCN)C(=O)N[C@@H](CC(N)=O)C(=O)N[C@@H]([C@@H](C)O)C(=O)N[C@@H](C)C(=O)N[C@@H]([C@@H](C)O)C(=O)N1)[C@@H](C)O)C(C)C)C(=O)N[C@@H](CC(C)C)C(=O)N[C@@H](CO)C(=O)N[C@@H](CO)C(=O)N[C@H](C(=O)N[C@@H](CC(N)=O)C(=O)N[C@H](C(=O)NCC(=O)N[C@@H](CO)C(=O)N[C@@H](CC(N)=O)C(=O)N[C@H](C(=O)N[C@@H](Cc1ccc(O)cc1)C(N)=O)[C@@H](C)O)C(C)C)[C@@H](C)O [hIAPP] |  |  |  |  | relatively short worm-like fibrils | effect on cell viability, peptide alone ([3]; HeLa cells, 200, 400, 600 and 800 μg/mL, 24 h, CCK-8, n = 3): highest level of toxicity; cell viability at 400 μg/mL ([3]; HeLa cells, 24 h, CCK-8, peptide in deionized water, triplicates): 0%; diameter of helical fibrils (AFM) [5, 7]: 5–6 nm; diameter of ribbon fibrils (AFM) [5, 7]: around 2 nm; fibril length (AFM), some fibrils, peptide alone ([5]; 200 µM peptide alone, phosphate buffer pH 7.4, 24 h, fibrils vary in length): > 2 µm; average fibril length (AFM) with Cu(II) [5, 8]: less than 2 µm; fibril diameter (AFM) with Cu(II) [5, 8]: 2–3 nm; fibril morphology (AFM) with Cu(II) [5, 8]: unique looping structure
4 | SNNFGPILPP [Pramlintide-F, fragment derived from pramlintide, central region] | no signal loss was observed over time | no increase in fluorescence intensity; also recorded: did not show any increase in the fluorescence intensity | neither metal ions Cu(II) nor Zn(II) have any influence on the aggregation rate | neither metal ions Cu(II) nor Zn(II) have any influence on the aggregation rate |  | 

The next lines start with results.

Row | NMR signal intensity over time (signal loss = aggregation), peptide alone [2] | Molecule | ThT fluorescence intensity (aggregation), peptide alone [1] | ThT fluorescence intensity (aggregation) with Cu(II) [1] | ThT fluorescence intensity (aggregation) with Zn(II) [1] | fibril morphology (AFM), peptide alone [5, 6] | also measured
5 | no signal loss was observed over time | SNNLGPILPP [rIAPP-M, custom-designed mutated fragment of rat amylin] | no increase in fluorescence intensity; also recorded: did not show any increase in the fluorescence intensity | neither metal ions Cu(II) nor Zn(II) have any influence on the aggregation rate | neither metal ions Cu(II) nor Zn(II) have any influence on the aggregation rate |  | 
6 | no signal loss was observed over time | SNNLGPVLPP [rIAPP-F, fragment derived from rat amylin, central region] | did not show any increase in the fluorescence intensity | neither metal ions Cu(II) nor Zn(II) have any influence on the aggregation rate | neither metal ions Cu(II) nor Zn(II) have any influence on the aggregation rate |  | 
